Results from US20230277553A1, “THERAPEUTIC COMPOSITION OF CURE-PRO COMPOUNDS FOR TARGETED DEGRADATION OF BET DOMAIN PROTEINS, AND METHODS OF MAKING AND USAGE” (CORNELL UNIVERSITY, priority 2020, published 2023).
Entries after “also recorded” stand apart in the source; their conditions may differ.

Columns and labels:
Format in all cases: cell-based
caspase 3/7 = test: Caspase-Glo 3/7 assay, Namalwa cells; details: 24 hours, 1:1 with 8047
Procedure: Caspase-glo® assay (Promega) was conducted following the manufacturer's recommendations. Cells were seeded at a density of 5000 cells/well in a white 96 well plates (Corning, #3917) in a total volume of 100 μl with respective monomers, combinations of BRD ligands together with E3 ligase ligands or vehicle control treatment. After a 24 h incubation, 100 μl of the […] substrate was added per well and luminescence was read on a Spectramax M5 (Molecular Devices).
Namalwa cells (5×104) were treated for 24 hours with the compounds solubilized in DMSO. FIG. 57 is a bar graph depiction of fold increase of apoptosis assessed via caspase 3/7 activity using the Caspase-glo assay (Promega) described above.
Molm-13 (FIG. 76A) or Namalwa (FIG. 76B) cells (5×10^4) were treated for 24 hours with the compounds solubilized in DMSO in white 96 well plates (10 nM-10 μM solubilized in DMSO). FIG. 76 is a bar graph depiction of fold increase of apoptosis assessed via caspase 3/7 activity using the Caspase-glo assay (Promega) described above.

BRD4 [1] = target: T1, BRD4 (Homo sapiens, UniProt O60885); test: Summary of BRD4 degradation by CURE-PRO pairs, estimated from Western Blot or WES (Proteinsimple); parameters: endogenous in cells; details: Table 1; CRBN ligand, second drawing (8047)
Text: A black check mark indicates efficacy of 30% to 70% or higher protein degradation.

BRD4 [2] = target: T1, BRD4; test: CURE-PRO-mediated BRD4 degradation, WES (ProteinSimple), HeLa cells; parameters: endogenous in cells; host or cells: HeLa; details: 10 μM each, 4-24 h with washout after 4 h, or 100 nM-10 μM
Procedure: All cell lines were purchased from ATCC or DSMZ and grown at 37° C. with 5% CO2. Human HeLa cells were cultured in complete growth medium (Dulbecco's modified Eagle's medium (DMEM) supplemented with 10% FBS); MCF7 cells were cultured in complete growth medium (Dulbecco's modified Eagle's medium (DMEM) supplemented with 10% FBS and 0.01 mg/ml human recombinant insulin (Sigma Aldrich); Namalwa and MOLM-13 cells were cultured in complete growth medium (RPMI 1640 medium supplemented with 10% FBS); MV-4-11 were cultured in complete growth medium (Iscove's Modified Dulbecco's medium, supplemented with 10% FBS); HCT116 cells were cultured in complete growth medium (McCoy's 5a Medium supplemented with 10% FBS). For cellular degradation of BRD4 studies, cells were seeded in a 12-well plate at 70-80% confluency, allowed to attach overnight, and incubated with the indicated compounds for the indicated time. When indicated, a 15-minute pretreatment with 10 μM pomalidomide, 10 μM VHL298, 10 μM Nutlin3a, 1 μM MG-132 or 1 μM Carfilzomib was performed before the addition of CURE-PROs. For washout studies, after CURE-PRO treatment, media was aspirated and incubated with complete medium for the indicated time before lysis.
Anti-BRD4 (13440, 1:1,000 dilution for Western Blot and 1:25 dilution for ProteinSimple); Anti-BRD2 (5848 1:1,000 dilution for Western Blot and 1:25 dilution for ProteinSimple); β-Actin (3700, 1:2,000 dilution for Western Blot), β-Actin (4970, 1:50 dilution for ProteinSimple) anti-mouse IgG-HRP, and anti-rabbit IgG-HRP antibodies were purchased Cell Signaling Technology. Anti-GAPDH (600-401-A33, 1:100 dilution for ProteinSimple) was purchased from Rockland Immunochemicals, Inc. Anti-BRD3 (sc-81202, 1:200 dilution for Western Blot) was purchased from Santa Cruz Biotechnology.
WES Simple analysis was performed on WES system (ProteinSimple-Biotechne) according to the manufacturer's instructions. Total protein concentrations of cell lysates were determined by the Pierce BCA kit (Thermo Fisher). 3 μL of 0.3 μg/μL of the protein lysate was loaded onto a 12- to 230-kDa WES assay plate (ProteinSimple) where 300 nL sample was withdrawn through a capillary, subjected to electrophoretic separation of proteins by size, and followed by the simultaneous, HRP-based detection of proteins using the Anti-Rabbit Detection Module (Proteinsimple: #DM-001). The electropherograms were checked then the automatic peak detection was manually corrected if it was required.
HeLa cells (2.5×10^6) were treated for 4-24 hours with the compounds solubilized in DMSO. After 4 hours, indicated points were washed and cells were left in full growth media. Compounds were added at 10 μM each. […]

Namalwa cells = test: CellTiter-Glo cell viability, Namalwa cells; details: 72 hours, 1:1 with 8047, 10 nM-10 μM each
Procedure: CellTiter-Glo® 2.0 Cell Viability Assay (Promega) was carried out following the manufacturer's recommendations. Cells were seeded at a density of 1000 cells/well in a white 96 well plates (Corning, #3917) in a total volume of 100 μl with respective monomers, combinations of BRD ligands together with E3 ligase ligands or vehicle control treatment. After a 72 h incubation, 100 ul of the CellTiter-Glo® substrate was added per well and luminescence was read on a Spectramax M5 (Molecular Devices). Dose-response curves were generated using Graphpad Prism software.
Namalwa cells (1×104) were treated for 72 hours with the compounds solubilized in DMSO. Compounds were added at 10 nM-10 μM each. Cellular viability was determined using the CellTiter-Glo® Luminescent Cell Viability Assay (Promega) described above. FIG. 56 depicts the CURE-PRO-mediated loss of cellular viability for the BRD-E72 monomer (JQ1 derivatives comprising of boronic acid linkers), and the CRBN ligand, 8047 (a pomalidomide derivative comprising diol linkers) combined in a 1:1 ratio.

BRD4 [3] = target: T1, BRD4; test: CURE-PRO-mediated BRD4 degradation, Western blot, HeLa cells; parameters: endogenous in cells; host or cells: HeLa; details: 24 h
Method in brief: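 HeLa cells treated 24 h with compounds in DMSO (1-10 μM, 10 μM or 100 μM each; paired monomers combined 1:1), optional 15-min pretreatment with pomalidomide, VHL298, Nutlin3a (10 μM) or MG-132/carfilzomib (1 μM). RIPA lysates, 10-20 μg protein immunoblotted for BRD4 with β-actin, ECL detection.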

With CCNC(=O)C[C@@H]1N=C(c2ccc(Cl)cc2)c2cc(-c3cccc(B(O)O)c3)ccc2-n2c(C)nnc21 [BRD-E72, (3-((4S)-6-(4-chlorophenyl)-4-(2-(ethylamino)-2-oxoethyl)-1-methyl-4H-benzo[f][1,2,4]triazolo[4,3-a][1,4]diazepin-8-yl)phenyl)boronic acid] the “Caspase 3/7 activation, co-dosed with CRBN ligand 8047” value (caspase 3/7) was “demonstrates activation of caspase 3/7; also recorded: marked caspase activation”, the “Degradation of BRD4 in combination with CRBN ligand [drawing 371]” value (BRD4 [1]) was “✓ (A black check mark indicates efficacy of 30% to 70% or higher protein degradation)” and the “BRD4 degradation, co-dosing with CRBN ligand 8047 (WES)” value (BRD4 [2]) was “marked BRD4 degradation after 4h with sustained degradation for up to 8h after drugs are washed out”. The “Loss of cell viability, co-dosed with CRBN ligand 8047” value (Namalwa cells) was “increase in the loss of viability compared to monomer treatment alone; also recorded: marked loss in cell viability”, the “BRD4 degradation, BRD ligand with pomalidomide (no 8047)” value (BRD4 [3]; 10 μM) was “failed to induce BRD4 degradation” and the “BRD4 degradation, BRD ligand alone” value (BRD4 [3]; BRD monomer alone, Western blot) was “no change in expression”.
